# From US20150376647A1, “DESIGNER PH SENSOR AS UNIVERSAL TRANSGENE CONTROLLER” (ETH ZURICH, priority 2013, published 2015)
# Tested on: protein kinase A (PKA)
# Experiment: PKA inhibition of pH sensor signaling in pDA62/pCK53-cotransfected HEK-293T
# Type: cell-based, human
# Details: 10 μM for 1 h, 2 h at pH 6.9, then pH 7.6, SEAP after 24 h
# Method: PKA inhibition: 1.5×10^5 cells were pretreated with 10 μM H-89 (Sigma, cat. no. B1472) for 1 h, incubated for 2 h in cell culture medium adjusted to pH 6.9 and maintained for 24 h in cell culture medium adjusted to pH 7.6 before SEAP levels were assessed in the cell culture supernatant
# SEAP: Production of human placental secreted alkaline phosphatase was quantified in cell culture supernatants (Schlatter S. et al., Gene 282, 19-31 (2002)) and mouse serum (Weber et. al., Nat. Biotech., 22, 1440-1444 (2004)) as described before.
compound,measurement,value
O=S(=O)(NCCNC/C=C/c1ccc(Br)cc1)c1cccc2cnccc12 [H-89],TDAG8-to-PCRE signaling (SEAP levels),interrupted
